Reference: publication PMC6286365 (Scientific Reports, 2018)

How the values were obtained:
[1] = molecular target: alkaline phosphatase; assay: Counter assay without nSMase2 and SM, phosphorylcholine as substrate (enzyme-coupled detection reactions); format: biochemical; settings: no nSMase2, no SM; phosphorylcholine 2 μM as substrate
[2] = molecular target: T1, human nSMase2 (Homo sapiens, UniProt Q9NY59); assay: Mode of inhibition: rate vs SM concentration at several DPTIP concentrations (Michaelis-Menten fits); format: biochemical; design: Full length human nSMase2 cDNA with a C-terminal Flag tag; host or cells: HEK293 cells, G418-selected; crude sonicated cell lysate used as the enzyme preparation; settings: with respect to SM
T1 sequence (Q9NY59 1-655): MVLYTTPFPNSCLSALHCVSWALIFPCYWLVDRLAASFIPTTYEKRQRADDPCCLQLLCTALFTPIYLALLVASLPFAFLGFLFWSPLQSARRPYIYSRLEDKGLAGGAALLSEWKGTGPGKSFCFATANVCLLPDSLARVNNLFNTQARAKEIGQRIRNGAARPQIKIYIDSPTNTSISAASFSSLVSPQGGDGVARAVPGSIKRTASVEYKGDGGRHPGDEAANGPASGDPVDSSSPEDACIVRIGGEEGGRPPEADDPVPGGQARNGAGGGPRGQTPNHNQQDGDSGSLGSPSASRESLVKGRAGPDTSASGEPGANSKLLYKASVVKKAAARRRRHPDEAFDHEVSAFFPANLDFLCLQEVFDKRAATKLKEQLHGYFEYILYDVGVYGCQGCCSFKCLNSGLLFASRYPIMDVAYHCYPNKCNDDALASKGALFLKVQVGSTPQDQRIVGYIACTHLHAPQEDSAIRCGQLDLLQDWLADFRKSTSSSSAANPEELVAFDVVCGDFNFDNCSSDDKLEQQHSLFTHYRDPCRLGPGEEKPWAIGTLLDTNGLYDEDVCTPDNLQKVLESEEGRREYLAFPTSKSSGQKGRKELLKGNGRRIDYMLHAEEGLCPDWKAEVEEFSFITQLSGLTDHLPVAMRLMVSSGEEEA

[3] = Metabolic stability in human liver microsomes with NADPH; format: in vitro ADME; settings: pH 7.4, 1 μM compound, read-out: percent remaining
Experimental: One potential liability when using chemical probes in vivo is lack of metabolic stability which structurally inactivates the compound before it can reach its molecular target. […] Percent of drug remaining over time was determined by liquid chromatography–tandem mass spectrometry analysis (LC/MS/MS).
Metabolic stability assay was conducted in mouse or human liver microsomes as we have described previously with minor modifications. Briefly, the reaction was carried out using potassium phosphate buffer (100 mM, pH 7.4), in the presence of an NADPH regenerating system (compound final concentration was 1 μM; 0.2 mg/mL microsomes). Compound disappearance was monitored over time using a liquid chromatography and tandem mass spectrometry (LC/MS/MS) method. Chromatographic analysis was performed using an Accela ultra high-performance system consisting of an analytical pump and an autosampler coupled with a TSQ Vantage mass spectrometer (Thermo Fisher Scientific Inc., Waltham, MA). […] The mobile phase consisted of 0.1% formic acid in acetonitrile and 0.1% formic acid in water with gradient elution.

## COc1cc(-c2nc(-c3cccs3)c(-c3ccccc3)[nH]2)cc(OC)c1O [DPTIP, 2,6-Dimethoxy-4-(5-Phenyl-4-Thiophen-2-yl-1H-Imidazol-2-yl)-Phenol]
[1]
  IC50: > 100 µM
[2]
  mode of inhibition: noncompetitive
[3]
  remaining at 1 h, 1 μM: 100%
